Test results reported in ChEMBL document CHEMBL3808279, “Sequential one-pot synthesis of bis(indolyl)glyoxylamides: Evaluation of antibacterial and anticancer activities” (Bioorg Med Chem Lett, 2016).
In brackets after ≈: the same amount, converted by molar mass. Activity calls are given as the source filed them. No cut-off for these calls is given here.

Experiments:
Staphylococcus aureus [1] = experiment: Antibacterial activity against Staphylococcus aureus after 18 to 24 hrs by microbroth dilution method; assay type: functional; details: for MIC: Staphylococcus aureus
Klebsiella pneumoniae = experiment: Antibacterial activity against Klebsiella pneumoniae after 18 to 24 hrs by microbroth dilution method; assay type: functional; details: for MIC: Klebsiella pneumoniae
Escherichia coli [2] = experiment: Antibacterial activity against Escherichia coli after 18 to 24 hrs by microbroth dilution method; assay type: functional; details: for MIC: Escherichia coli
Pseudomonas putida [3] = experiment: Antibacterial activity against Pseudomonas putida after 18 to 24 hrs by microbroth dilution method; assay type: functional; details: for MIC: Pseudomonas putida
Bacillus subtilis [4] = experiment: Antibacterial activity against Bacillus subtilis after 18 to 24 hrs by microbroth dilution method; assay type: functional; details: for MIC: Bacillus subtilis
[5] = biological target: Cyclin-dependent kinase 4 (Homo sapiens, UniProt P11802); experiment: Inhibition of CDK4 (unknown origin)
Cyclin-dependent kinase 4, sequence (P11802 whole entry): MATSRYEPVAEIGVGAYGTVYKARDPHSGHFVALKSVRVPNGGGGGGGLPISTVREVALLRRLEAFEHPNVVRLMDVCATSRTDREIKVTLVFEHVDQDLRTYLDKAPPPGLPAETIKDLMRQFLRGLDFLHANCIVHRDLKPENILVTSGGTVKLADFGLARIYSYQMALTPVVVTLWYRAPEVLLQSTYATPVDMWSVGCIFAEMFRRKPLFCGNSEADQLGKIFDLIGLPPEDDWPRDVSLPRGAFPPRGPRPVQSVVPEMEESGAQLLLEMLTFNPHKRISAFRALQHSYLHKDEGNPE

[6] = biological target: Receptor tyrosine-protein kinase erbB-2 (Homo sapiens, UniProt P04626); experiment: Inhibition of c-erbB2 (unknown origin)
Receptor tyrosine-protein kinase erbB-2, sequence (P04626 whole entry): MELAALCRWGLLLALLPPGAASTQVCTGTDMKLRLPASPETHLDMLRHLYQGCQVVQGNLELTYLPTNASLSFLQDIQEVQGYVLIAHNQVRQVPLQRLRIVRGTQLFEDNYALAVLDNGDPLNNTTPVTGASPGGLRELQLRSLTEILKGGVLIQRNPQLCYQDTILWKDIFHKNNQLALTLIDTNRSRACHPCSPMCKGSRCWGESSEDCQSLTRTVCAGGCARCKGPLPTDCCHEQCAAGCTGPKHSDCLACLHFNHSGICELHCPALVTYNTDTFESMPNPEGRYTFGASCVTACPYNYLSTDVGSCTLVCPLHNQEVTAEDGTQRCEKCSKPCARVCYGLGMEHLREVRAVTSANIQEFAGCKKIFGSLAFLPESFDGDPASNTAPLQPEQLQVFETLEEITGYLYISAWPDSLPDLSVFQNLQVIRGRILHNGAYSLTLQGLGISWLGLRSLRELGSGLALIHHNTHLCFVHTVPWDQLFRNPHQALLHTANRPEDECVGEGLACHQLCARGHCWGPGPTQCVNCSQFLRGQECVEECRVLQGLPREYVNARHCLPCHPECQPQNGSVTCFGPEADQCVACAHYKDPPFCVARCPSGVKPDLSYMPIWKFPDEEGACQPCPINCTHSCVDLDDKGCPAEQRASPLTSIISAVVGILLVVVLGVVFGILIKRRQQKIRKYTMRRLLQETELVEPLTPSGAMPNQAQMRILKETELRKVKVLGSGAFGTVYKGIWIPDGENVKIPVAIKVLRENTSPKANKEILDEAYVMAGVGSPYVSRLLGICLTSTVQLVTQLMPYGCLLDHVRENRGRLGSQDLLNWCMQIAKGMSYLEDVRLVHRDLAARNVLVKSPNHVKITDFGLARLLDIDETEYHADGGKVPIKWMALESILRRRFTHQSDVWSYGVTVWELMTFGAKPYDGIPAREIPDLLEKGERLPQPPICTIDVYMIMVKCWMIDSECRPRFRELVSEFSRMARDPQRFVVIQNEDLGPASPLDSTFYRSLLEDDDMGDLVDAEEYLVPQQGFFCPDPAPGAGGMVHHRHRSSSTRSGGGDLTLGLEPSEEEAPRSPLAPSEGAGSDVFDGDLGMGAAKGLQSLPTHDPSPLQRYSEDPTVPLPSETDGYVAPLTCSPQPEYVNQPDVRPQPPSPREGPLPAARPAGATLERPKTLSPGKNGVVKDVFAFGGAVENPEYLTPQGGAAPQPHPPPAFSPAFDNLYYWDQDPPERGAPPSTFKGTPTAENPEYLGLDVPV

Bacillus subtilis [7] = experiment: Antimicrobial activity against Bacillus subtilis; assay type: functional
A549 = experiment: Cytotoxicity against human A549 cells; assay type: functional, cell-based
Pseudomonas aeruginosa = experiment: Antimicrobial activity against Pseudomonas aeruginosa; assay type: functional
Escherichia coli [8] = experiment: Antimicrobial activity against Escherichia coli; assay type: functional
P388 = experiment: Cytotoxicity against mouse P388 cells; assay type: functional, cell-based
HeLa = experiment: Cytotoxicity against human HeLa cells after 48 hrs by MTT assay; assay type: functional, cell-based
[9] = Cytotoxicity against human PC3 cells after 48 hrs by MTT assay; assay type: functional, cell-based; details: PC-3, 48 h
MDA-MB-231 = experiment: Cytotoxicity against human MDA-MB-231 cells after 48 hrs by MTT assay; assay type: functional, cell-based; details: MDA-MB-231, 48 h
[10] = Cytotoxicity against human BxPC3 cells after 48 hrs by MTT assay; assay type: functional, cell-based; details: BXPC-3, 48 h
[11] = Cytotoxicity against human C4-2 cells after 48 hrs by MTT assay; assay type: functional, cell-based; details: LNCaP C4-2, 48 h
[12] = Cytotoxicity against human HEK293T cells after 48 hrs by MTT assay; assay type: cell-based; details: HEK-293T
Pseudomonas putida [13] = experiment: Bactericidal activity against Pseudomonas putida assessed as maximum bactericidal reduction at 3 times MIC after 3 hrs by time-kill analysis; assay type: functional, organism-based
Bacillus subtilis [14] = experiment: Bactericidal activity against Bacillus subtilis at 3 times MIC after 2 hrs by time-kill analysis; assay type: functional
Pseudomonas putida [15] = experiment: Bactericidal activity against Pseudomonas putida at 3 times MIC after 2 hrs by time-kill analysis; assay type: functional
[16] = Stability of compound at pH 4.5 up to 48 hrs by HPLC analysis; assay type: physicochemical; details: buffer, pH 4.5, 48 h
Escherichia coli [17] = experiment: Bactericidal activity against Escherichia coli at 3 times MIC after 2 hrs by time-kill analysis; assay type: functional
Staphylococcus aureus [18] = experiment: Bactericidal activity against Staphylococcus aureus at 3 times MIC after 2 hrs by time-kill analysis; assay type: functional
Escherichia coli [19] = experiment: Bactericidal activity against Escherichia coli assessed as maximum bactericidal reduction at 3 times MIC after 3 hrs by time-kill analysis; assay type: functional, organism-based
[20] = Aqueous solubility of compound after 12 hrs by shake-flask method; assay type: physicochemical; details: water
[21] = Stability of compound at pH 7.4 up to 48 hrs by HPLC analysis; assay type: physicochemical; details: buffer, pH 7.4, 48 h

Row | SMILES | inhibition zone (IZ) (Staphylococcus aureus [1]) | inhibition zone (IZ) (Klebsiella pneumoniae) | inhibition zone (IZ) (Escherichia coli [2]) | inhibition zone (IZ) (Pseudomonas putida [3]) | inhibition zone (IZ) (Bacillus subtilis [4]) | MIC (Staphylococcus aureus [1]) | IC50 (HeLa) | IC50 [9] | MIC (Klebsiella pneumoniae) | IC50 (MDA-MB-231) | IC50 [10] | IC50 [11] | MIC (Escherichia coli [2]) | MIC (Pseudomonas putida [3]) | IC50 [12] | MIC (Bacillus subtilis [4]) | further results
1 | O=C(N[C@H](CO)[C@H](O)c1ccc([N+](=O)[O-])cc1)C(Cl)Cl [CHLORAMPHENICOL] | 21 mm | 20 mm | 22 mm | 21 mm | 22 mm | – | – | – | – | – | – | – | – | – | – | – | –
2 | O=C1N=C(C(=O)c2c[nH]c3ccccc23)N/C1=C\c1c[nH]c2cc(O)ccc12 | – | – | – | – | – | – | – | – | – | – | – | – | – | – | – | – | IC50 [5]: 33.8 µM; IC50 [6]: 20 µM
3 | CC(c1c[nH]c(N)n1)c1ccc(O)c2[nH]cc(-c3cnc(-c4c[nH]c5cc(Br)ccc45)c(O)n3)c12.O=C(O)C(F)(F)F (stereo not given) [DRAGMACIDINS] | – | – | – | – | – | – | – | – | – | – | – | – | – | – | – | – | MIC (Bacillus subtilis [7]): 3.1 µg/mL; IC50 (A549): 4.5 µg/mL; MIC (Pseudomonas aeruginosa): 62.5 µg/mL; MIC (Escherichia coli [8]): 15.6 µg/mL; IC50 (P388): 1.4 µg/mL
4 | O=C(NCCc1c[nH]c2ccccc12)C(=O)c1cn(Cc2ccc(Cl)cc2)c2ccc(Br)cc12 | 13 mm | 14 mm | 15 mm | 14 mm | 14 mm | 100 µg/mL (≈ 187 µM) | > 100 µM | > 100 µM | > 50 µg/mL | > 100 µM | > 100 µM | > 100 µM | 100 µg/mL (≈ 187 µM) | > 100 µg/mL | > 100 µM | 100 µg/mL (≈ 187 µM) | –
5 | COc1ccc2[nH]cc(C(=O)C(=O)CCCc3c[nH]c4ccccc34)c2c1 | – | 15 mm | 15 mm | 15 mm | – | – | > 100 µM | > 100 µM | 50 µg/mL (≈ 139 µM) | > 100 µM | > 100 µM | > 100 µM | 100 µg/mL (≈ 277 µM) | 100 µg/mL (≈ 277 µM) | > 100 µM | – | –
6 | O=C(NCCc1c[nH]c2ccccc12)C(=O)c1c[nH]c2ccc(F)cc12 | 17 mm | 18 mm | 20 mm | 18 mm | 18 mm | 25 µg/mL (≈ 71.6 µM) | > 100 µM | > 100 µM | 12.5 µg/mL (≈ 35.8 µM) | > 100 µM | > 100 µM | > 100 µM | 12.5 µg/mL (≈ 35.8 µM) | 12.5 µg/mL (≈ 35.8 µM) | > 100 µM | > 12.5 µg/mL | Activity (Pseudomonas putida [13]): Active; Activity (Bacillus subtilis [14]): >80%; Activity (Pseudomonas putida [15]): 80%; Stability [16]: Stable; Activity (Escherichia coli [17]): 80%; Activity (Staphylococcus aureus [18]): >65%; Activity (Escherichia coli [19]): Active; solubility thermodynamic at 12 h [20]: 0.3 µg/mL (≈ 0.859 µM); Stability [21]: Stable
7 | COc1ccc2c(C(=O)C(=O)NCCc3c[nH]c4ccccc34)c[nH]c2c1 | 14 mm | 15 mm | 14 mm | 15 mm | 15 mm | 100 µg/mL (≈ 277 µM) | > 100 µM | > 100 µM | 100 µg/mL (≈ 277 µM) | > 100 µM | > 100 µM | > 100 µM | > 50 µg/mL | > 50 µg/mL | > 100 µM | > 100 µg/mL | –
8 | O=C(NCCc1c[nH]c2ccccc12)C(=O)c1cn(Cc2ccc(F)cc2)c2ccccc12 | 14 mm | 13 mm | 15 mm | 15 mm | 12 mm | > 100 µg/mL | > 100 µM | > 100 µM | > 100 µg/mL | > 100 µM | > 100 µM | > 100 µM | 100 µg/mL (≈ 228 µM) | 100 µg/mL (≈ 228 µM) | > 100 µM | > 100 µg/mL | –
9 | O=C(NCCc1c[nH]c2ccccc12)C(=O)c1cn(Cc2ccc(Cl)cc2)c2ccc(F)cc12 | 13 mm | 12 mm | 14 mm | 14 mm | 13 mm | 100 µg/mL (≈ 211 µM) | > 100 µM | > 100 µM | > 100 µg/mL | > 100 µM | > 100 µM | > 100 µM | 100 µg/mL (≈ 211 µM) | 100 µg/mL (≈ 211 µM) | > 100 µM | > 50 µg/mL | –
10 | COc1ccc2c(C(=O)C(=O)NCCc3c[nH]c4ccccc34)cn(Cc3ccc(Cl)cc3)c2c1 | – | 15 mm | 15 mm | 16 mm | – | – | > 100 µM | > 100 µM | > 50 µg/mL | > 100 µM | > 100 µM | > 100 µM | 50 µg/mL (≈ 103 µM) | 50 µg/mL (≈ 103 µM) | > 100 µM | – | –
